According to patent US20230113802A1, “COMPOSITION AND METHOD TO PREPARE LONG-ACTING INJECTABLE SUSPENSION CONTAINING MULTIPLE CANCER DRUGS” (University of Washington, priority 2020, published 2023):
Where two headings read alike, the source gives them in different places. Marks after values point to notes of the source that are not given here.

Columns and labels:
[1] = Mechanism-based pharmacokinetic modeling (MBPK) of DcNP associated and dissociated GT; design: species or system mice; settings: for V, DcNP Dissociated Parameter: fitted to CrEL data
Excerpt: Briefly, the model adopted here for GT is composed of two sub-models representing DcNP-associated drug and dissociated drug species. Each sub-model has a central compartment and a peripheral compartment. The observed plasma concentration is the sum of DcNP-associated and dissociated species since they cannot be measured separately. […] These parameters were then fixed and the linked sub-models were fitted to the observed total concentrations for G and T obtained after injection of the DcNP-dose. The model reasonably assumed that the pharmacokinetics of drugs released from particles will be the same as that of the free-drug (CrEL) control. It was assumed that G and T are released from the particle at independent rates (k1,3) in the central compartment and only dissociated drugs are subject to clearance from the system (k0,1). […] The peripheral compartment features purely drug exchange between plasma and a group of slowly equilibrating tissues (k4,3, k3,4). In other words, the DcNP-associated drug is cleared only via its release from the particles in the central compartment. […] MBPK modeling and parameter estimations were performed using SAAM II v2.3.
To further understand the effect of DcNP on the pharmacokinetic behavior of GT, a mechanism-based pharmacokinetic model (MBPK) was used to simulate the time course of DcNP-associated and dissociated drugs in plasma. The MBPK model adapted for GT-DcNPs is based on a validated MBPK model developed for long-acting HIV drug combination nanoparticles tested in non-human primates. Experimentally, the total drug concentrations in plasma (i.e., DcNP-associated plus dissociated) can be measured, but DcNP-associated and dissociated drugs could not be distinguished. […] The MBPK model presented in FIG. 4 utilizes data from both DcNP and CrEL control formulation treated animals to estimate plasma concentrations of DcNP-associated and dissociated drug species over time and their respective time-averaged fractions in vivo. After intravenous administration as a DcNP, GT can theoretically exist in at least two species: DcNP-associated drug and dissociated drug. The latter can be reasonably assumed to distribute and be cleared as free G and T after administration of CrEL control formulation.
Individual distribution, metabolism and elimination of G and T are well characterized. […] T is metabolized in the liver primarily by CYP3A4 and CYP2C8 with subsequent excretion of metabolites into the bile. In this model, the k0,1 term represents the aggregate elimination processes of G and T through their independent described pathways. A peripheral compartment for both G and T was added and distribution was parameterized with the k1,2 and k2,1 terms. […] With these assumptions in place, the k1,3 term was set to link the two sub-models and represent the release mechanism of drug from DcNP into the central compartment. The DcNP associated species of G and T was then parameterized with the k4,3 and k3,4 to account for distribution.

[2] = GT localization in healthy versus 4T1 tumor bearing lung tissue; assay type: in vivo, BALB/c mice; settings: for concentration at 1 h / concentration at 24 h / Kp at 1 h / Kp at 24 h: female, BALB/c, mouse, intravenous; for concentration at 24 h / Kp at 24 h: 24 hours after DcNP; for Kp at 1 h / Kp at 24 h: lung/plasma, read-out: Lung/Plasma Ratio
Method: Female BALB/c mice were injected with 2×10^5 4 T1 metastatic breast cancer cells that express luciferase as a marker intravenously by tail vein on day 0. Stable expression of luciferase in these cells allows for bioluminescent monitoring of tumor growth and metastasis. Over a 14-day period, mouse behavior and health conditions were monitored daily and body weight measurements were taken every 2 days. […] The bioluminescence imaging was acquired through a XENOGEN IVIS 200 imaging system (PerkinElmer, Waltham, Mass.). The bioluminescence imaging parameters for live mice were set as follows: field of view, 24; excitation filter, closed; emission filter, open; exposure time, 180 sec; binning factor, 4; f/stop, 2. Bioluminescence intensity from mice were integrated using Live Image software (PerkinElmer, Waltham, Mass.). Mice were then intravenously administered GT in DcNPs at a dose of 50 mg/kg G and 5 mg/kg T or the same dose of drug in control suspension (CrEL) and sacrificed at fixed time points.
To determine whether DcNPs enhance GT distribution into target tissues, namely cancer nodules, the differential localization of GT in DcNP or CrEL form in healthy versus cancer nodule bearing mice was investigated. Since lungs are a common metastatic site for breast cancer disease progression, a model for metastasis that forms cancer nodules in the lungs was used. Cancer nodules were established in female BALB/c mice via intravenous inoculation of syngeneic breast cancer cells (4T1). […] Once nodules were established and confirmed with IVIS imaging, mice were administered with GT in either DcNP or conventionally solubilized form at equivalent doses (50/5 mg/kg, GT) and euthanized at pre-determined time intervals. Nodule-free and nodule-bearing lungs were harvested, and lung tissue drug concentrations were compared in these two groups.

[3] = cited from earlier work
[4] = at 25° C.; cited from earlier work
[5] = model derived, single IV dose in GT DcNP dosage form
[6] = model derived, single IV dose in GT DcNP dosage form, listed as G
[7] = lung, 1 hour after DcNP, 4T1 tumor bearing mice, read-out: Lung
[8] = lung, 1 hour after DcNP, Healthy mice, 50/5 mg/kg GT IV, read-out: Lung
[9] = lung, 1 hour after control (CrEL), 4T1 tumor bearing mice, 50/5 mg/kg GT IV, read-out: Lung
[10] = lung, 1 hour after control (CrEL), Healthy mice, 50/5 mg/kg GT IV, geometric mean ± SD, read-out: Lung
[11] = lung, 4T1 tumor bearing mice, read-out: Lung
[12] = lung, Healthy mice, read-out: Lung
[13] = 1 hour after DcNP, 4T1 tumor bearing mice
[14] = 1 hour after DcNP, Healthy mice
[15] = 1 hour after control (CrEL), 4T1 tumor bearing mice
[16] = 1 hour after control (CrEL), Healthy mice
[17] = plasma, 1 hour after DcNP, 4T1 tumor bearing mice, read-out: Plasma
[18] = plasma, 1 hour after DcNP, Healthy mice, read-out: Plasma
[19] = plasma, 1 hour after control (CrEL), 4T1 tumor bearing mice, read-out: Plasma
[20] = plasma, 1 hour after control (CrEL), Healthy mice, read-out: Plasma

Structure (SMILES)	VDcNP, DcNP Associated Parameter [1, 5]	concentration at 1 h [2, 7] [ng/g]	concentration at 1 h [2, 8] [ng/g]	concentration at 1 h [2, 9] [ng/g]	concentration at 1 h [2, 10] [ng/g]	concentration at 24 h [2, 11] [ng/g]	concentration at 24 h [2, 12] [ng/g]	Kp at 1 h [2, 13]	Kp at 1 h [2, 14]	Kp at 1 h [2, 15]	Kp at 1 h [2, 16]	concentration at 1 h [2, 17] [ng/mL]	concentration at 1 h [2, 18] [ng/mL]	concentration at 1 h [2, 19] [ng/mL]	concentration at 1 h [2, 20] [ng/mL]	log P [3]	Water solubility [4] [µg/mL]	other results
Nc1ccn([C@@H]2O[C@H](CO)[C@@H](O)C2(F)F)c(=O)n1 [Gemcitabine, 4-amino-1-[(2R,4R,5R)-3,3-difluoro-4-hydroxy-5-(hydroxymethyl)oxolan-2-yl]pyrimidin-2-one]	5.2 ± 0.6 mL	12500 ± 4900	7500 ± 1200	6000 ± 800	900 ± 400	3500 ± 1000	300 ± 100	0.2 ± 0.1	0.1 ± 0.2	2.2 ± 1.4	0.9 ± 0.3	72600 ± 60000	52200 ± 64000	2800 ± 1400	900 ± 200	–	–	decrease of estimated volume of central compartment, DcNP compared to CrEL [1]: 4.6 times; release parameter (k1,3) of G lower than T ([1]; GT DcNP): 9.5 fold; K0,1, DcNP Dissociated Parameter [1, 5]: 3.9 ± 0.9 h⁻¹; K1,2, DcNP Dissociated Parameter [1, 5]: 0.5 ± 0.2 h⁻¹; K1,3 (release parameter), DcNP Associated Parameter [1, 5]: 0.2 ± 0.02 h⁻¹; K2,1, DcNP Dissociated Parameter [1, 5]: 0.2 ± 0.1 h⁻¹; K3,4, DcNP Associated Parameter [1, 5]: 0.6 ± 0.1 h⁻¹; K4,3, DcNP Associated Parameter [1, 5]: 1.8 ± 0.5 h⁻¹; V, DcNP Dissociated Parameter [1, 5]: 24 ± 12 mL; V, DcNP Dissociated Parameter [1, 6]: 24 mL; K1,3 (release parameter), DcNP Associated Parameter [1, 6]: 0.2 h⁻¹; VDcNP, DcNP Associated Parameter [1, 6]: 5.2 mL; lung-to-plasma ratio, cancer nodule bearing mice times greater than healthy ([2]; 24 hours after GT DcNP): 5 times; Kp at 24 h ([2]; 4T1 tumor bearing mice): 0.1 ± 0.03; Kp at 24 h ([2]; Healthy mice): 0.02 ± 0.01; concentration at 24 h ([2]; plasma, 4T1 tumor bearing mice, read-out: Plasma): 34200 ± 600 ng/mL; concentration at 24 h ([2]; plasma, Healthy mice, read-out: Plasma): 12700 ± 1500 ng/mL
CC(=O)O[C@H]1C(=O)[C@@]2(C)[C@H]([C@H](OC(=O)c3ccccc3)[C@]3(O)C[C@H](OC(=O)[C@H](O)[C@@H](NC(=O)c4ccccc4)c4ccccc4)C(C)=C1C3(C)C)[C@]1(OC(C)=O)CO[C@@H]1C[C@@H]2O [Paclitaxel, [(1S,2S,3R,4S,7R,9S,10S,12R,15S)-4,12-diacetyloxy-15-[(2R,3S)-3-benzamido-2-hydroxy-3-phenylpropanoyl]oxy-1,9-dihydroxy-10,14,17,17-tetramethyl-11-oxo-6-oxatetracyclo[11.3.1.0^3,10.0^4,7]heptadec-13-en-2-yl] benzoate]	0.8^a mL	900 ± 500	600 ± 400	1700 ± 500	1000 ± 300	400 ± 100	60 ± 10	0.4 ± 0.2	0.4 ± 0.01	2.5 ± 0.8	3.3 ± 1.2	2200 ± 1100	1400 ± 900	700 ± 100	300 ± 50	–	–	lung concentration, cancer nodule bearing mice times greater than healthy mice ([2]; 24 hours after GT DcNP): 7 times
CC1(C)CCC(CN2CCN(c3ccc(C(=O)NS(=O)(=O)c4ccc(NCC5CCOCC5)c([N+](=O)[O-])c4)c(Oc4cnc5[nH]ccc5c4)c3)CC2)=C(c2ccc(Cl)cc2)C1 [Venetoclax, 4-[4-[[2-(4-chlorophenyl)-4,4-dimethylcyclohexen-1-yl]methyl]piperazin-1-yl]-N-[3-nitro-4-(oxan-4-ylmethylamino)phenyl]sulfonyl-2-(1H-pyrrolo[2,3-b]pyridin-5-yloxy)benzamide]	–	–	–	–	–	–	–	–	–	–	–	–	–	–	–	6.92	0.933	–
C=CC(=O)N1CCC([C@@H]2CCNc3c(C(N)=O)c(-c4ccc(Oc5ccccc5)cc4)nn32)CC1 [Zanubrutinib, (7S)-2-(4-phenoxyphenyl)-7-(1-prop-2-enoylpiperidin-4-yl)-4,5,6,7-tetrahydropyrazolo[1,5-a]pyrimidine-3-carboxamide]	–	–	–	–	–	–	–	–	–	–	–	–	–	–	–	3.5	10.3	–
